According to ChEMBL document CHEMBL1136464, “Array synthesis of novel lipodepsipeptide” (Bioorg Med Chem Lett, 2003):
Values after ≈ are worked out from the molar mass of the structure shown.

Tests used:
Enterococcus faecium [1] = assay: Antibacterial activity against Enterococcus faecium ATCC 49452 at 0 % serum; type: functional
Enterococcus faecium [2] = assay: Antibacterial activity against Enterococcus faecium ATCC 49452 at 10 % serum; type: functional; details: ATCC 49452, Serum
Enterococcus faecalis [3] = assay: Antibacterial activity against Enterococcus faecalis ATCC 6569 at 0 % serum; type: functional
Enterococcus faecalis [4] = assay: Antibacterial activity against Enterococcus faecalis ATCC 6569 at 10 % serum; type: functional; details: ATCC 6569, Serum
Mus musculus = species on record: Mus musculus; assay: Protective dose against methicillin-resistant staphylococcus aureus ATCC 43300 was determined in mice; type: functional; details: read-out: PD50
Staphylococcus aureus [5] = assay: Antibacterial activity against methicillin-resistant staphylococcus aureus ATCC 43300 at 10 % serum; type: functional
Staphylococcus aureus [6] = assay: Antibacterial activity against methicillin susceptible staphylococcus aureus ATCC 29213 at 0 % serum; type: functional
Staphylococcus aureus [7] = assay: Antibacterial activity against methicillin susceptible staphylococcus aureus ATCC 29213 at 10 % serum; type: functional
Staphylococcus aureus [8] = assay: Antibacterial activity against methicillin-resistant staphylococcus aureus ATCC 43300 at 0 % serum; type: functional
Enterococcus faecium [9] = assay: Antibacterial activity against Enterococcus faecium ATCC 49452; type: functional
Enterococcus faecalis [10] = assay: Antibacterial activity against Enterococcus faecalis ATCC 6569; type: functional
Staphylococcus aureus [11] = assay: Antibacterial activity against methicillin susceptible staphylococcus aureus ATCC 29213; type: functional
Staphylococcus aureus [12] = assay: Antibacterial activity against methicillin-resistant staphylococcus aureus ATCC 43300; type: functional
[13] = Vd in mice; type: ADME, organism-based; details: mouse, in vivo
[14] = Total plasma clearance in mice; type: ADME, organism-based; details: mouse
[15] = Half-life in mice; type: ADME, organism-based; details: mouse, in vivo
Enterococcus faecium [16] = assay: Antibacterial activity against Enterococcus faecium ATCC 49452 at 10 % serum in mice; type: functional; details: ATCC 49452, Serum
Enterococcus faecalis [17] = assay: Antibacterial activity against Enterococcus faecalis ATCC 6569 at 0 % serum in mice; type: functional
Enterococcus faecalis [18] = assay: Antibacterial activity against Enterococcus faecalis ATCC 6569 at 10 % serum in mice; type: functional
Staphylococcus aureus [19] = assay: Antibacterial activity against methicillin-resistant staphylococcus aureus ATCC 43300 at 10 % serum in mice; type: functional
Staphylococcus aureus [20] = assay: Antibacterial activity against methicillin-resistant staphylococcus aureus ATCC 43300 at 0 % serum in mice; type: functional
Enterococcus faecium [21] = assay: Antibacterial activity against Enterococcus faecium ATCC 49452 at 0 % serum in mice; type: functional

## CCCCCCCCCC(=O)N[C@@H](Cc1c[nH]c2ccccc12)C(=O)N[C@H](CC(N)=O)C(=O)N[C@@H](CC(=O)O)C(=O)N[C@@H]1C(=O)NCC(=O)N[C@@H](CCCNCc2ccc(-c3ccccc3)cc2)C(=O)N[C@@H](CC(=O)O)C(=O)N[C@H](C)C(=O)N[C@@H](CC(=O)O)C(=O)NCC(=O)N[C@H](CO)C(=O)N[C@@H]([C@H](C)CC(=O)O)C(=O)N[C@@H](CC(=O)c2ccccc2N)C(=O)O[C@@H]1C [listing 1 of 2 here]
Enterococcus faecium [1]
  MIC: 1.56 µg/mL (≈ 0.873 µM)
Enterococcus faecium [2]
  MIC: 25 µg/mL (≈ 14 µM)
Enterococcus faecalis [3]
  MIC: 1.56 µg/mL (≈ 0.873 µM)
Enterococcus faecalis [4]
  MIC: 12.5 µg/mL (≈ 7 µM)
Mus musculus
  ED50: 1.04 mg/kg
Staphylococcus aureus [5]
  MIC: 1.56 µg/mL (≈ 0.873 µM)
Staphylococcus aureus [6]
  MIC: 0.39 µg/mL (≈ 0.218 µM)
Staphylococcus aureus [7]
  MIC: 3.13 µg/mL (≈ 1.75 µM)
Staphylococcus aureus [8]
  MIC: 0.2 µg/mL (≈ 0.112 µM)

## CCCCCCCCCC(=O)N[C@@H](Cc1c[nH]c2ccccc12)C(=O)N[C@H](CC(N)=O)C(=O)N[C@@H](CCO)C(=O)N[C@@H]1C(=O)NCC(=O)N[C@@H](CCCNC(=O)c2ccccc2S(=O)(=O)O)C(=O)N[C@@H](CC(=O)O)C(=O)N[C@H](C)C(=O)N[C@@H](CC(=O)O)C(=O)NCC(=O)N[C@H](CO)C(=O)N[C@@H]([C@H](C)CC(=O)O)C(=O)N[C@@H](CC(=O)c2ccccc2N)C(=O)O[C@@H]1C
Enterococcus faecium [9]
  MIC: 100 µg/mL (≈ 55.8 µM)
Enterococcus faecalis [10]
  MIC: 100 µg/mL (≈ 55.8 µM)
Staphylococcus aureus [11]
  MIC: 100 µg/mL (≈ 55.8 µM)
Staphylococcus aureus [12]
  MIC: 100 µg/mL (≈ 55.8 µM)

## CCCCCCCCCC(=O)N[C@@H](Cc1c[nH]c2ccccc12)C(=O)N[C@H](CC(N)=O)C(=O)N[C@@H](CCO)C(=O)N[C@@H]1C(=O)NCC(=O)N[C@@H](CCCNC(=O)c2c(N)cccc2F)C(=O)N[C@@H](CC(=O)O)C(=O)N[C@H](C)C(=O)N[C@@H](CC(=O)O)C(=O)NCC(=O)N[C@H](CO)C(=O)N[C@@H]([C@H](C)CC(=O)O)C(=O)N[C@@H](CC(=O)c2ccccc2N)C(=O)O[C@@H]1C
Enterococcus faecium [9]
  MIC: 3.1 µg/mL (≈ 1.78 µM)
Enterococcus faecalis [10]
  MIC: 3.1 µg/mL (≈ 1.78 µM)

## CCCCCCCCCC(=O)N[C@@H](Cc1c[nH]c2ccccc12)C(=O)N[C@H](CC(N)=O)C(=O)N[C@@H](CC(=O)O)C(=O)N[C@@H]1C(=O)NCC(=O)N[C@@H](CCCNCc2ccc(-c3ccccc3)cc2)C(=O)N[C@@H](CC(=O)O)C(=O)N[C@H](C)C(=O)N[C@@H](CC(=O)O)C(=O)NCC(=O)N[C@H](CO)C(=O)N[C@@H]([C@H](C)CC(=O)O)C(=O)N[C@@H](CC(=O)c2ccccc2N)C(=O)O[C@@H]1C [listing 2 of 2 here]
[13]
  Vd: 0.107 L/kg
[14]
  clearance: 0.157 mL/min/kg
[15]
  half-life: 7.9 h

## CCCCCCCCCC(=O)N[C@@H](Cc1c[nH]c2ccccc12)C(=O)N[C@H](CC(N)=O)C(=O)N[C@@H](CCO)C(=O)N[C@@H]1C(=O)NCC(=O)N[C@@H](CCCNC(=O)c2ccccc2N)C(=O)N[C@@H](CC(=O)O)C(=O)N[C@H](C)C(=O)N[C@@H](CC(=O)O)C(=O)NCC(=O)N[C@H](CO)C(=O)N[C@@H]([C@H](C)CC(=O)O)C(=O)N[C@@H](CC(=O)c2ccccc2N)C(=O)O[C@@H]1C
Enterococcus faecium [9]
  MIC: 12.5 µg/mL (≈ 7.24 µM)
Enterococcus faecalis [10]
  MIC: 3.1 µg/mL (≈ 1.8 µM)
Staphylococcus aureus [11]
  MIC: 1.56 µg/mL (≈ 0.904 µM)
Staphylococcus aureus [12]
  MIC: 0.78 µg/mL (≈ 0.452 µM)

## CCCCCCCCCC(=O)N[C@@H](Cc1c[nH]c2ccccc12)C(=O)N[C@H](CC(N)=O)C(=O)N[C@@H](CCO)C(=O)N[C@@H]1C(=O)NCC(=O)N[C@@H](CCCNC(=O)C(N)Cc2c[nH]c3ccc(F)cc23)C(=O)N[C@@H](CC(=O)O)C(=O)N[C@H](C)C(=O)N[C@@H](CC(=O)O)C(=O)NCC(=O)N[C@H](CO)C(=O)N[C@@H]([C@H](C)CC(=O)O)C(=O)N[C@@H](CC(=O)c2ccccc2N)C(=O)O[C@@H]1C (stereo not given in full)
Enterococcus faecium [9]
  MIC: 12.5 µg/mL (≈ 6.9 µM)
Enterococcus faecalis [10]
  MIC: 3.1 µg/mL (≈ 1.71 µM)

## CCCCCCCCCC(=O)N[C@@H](Cc1c[nH]c2ccccc12)C(=O)N[C@H](CC(N)=O)C(=O)N[C@@H](CC(=O)O)C(=O)N[C@@H]1C(=O)NCC(=O)N[C@@H](CCCN)C(=O)N[C@@H](CC(=O)O)C(=O)N[C@H](C)C(=O)N[C@@H](CC(=O)O)C(=O)NCC(=O)N[C@H](CO)C(=O)N[C@@H]([C@H](C)CC(=O)O)C(=O)N[C@@H](CC(=O)c2ccccc2N)C(=O)O[C@@H]1C
Enterococcus faecium [16]
  MIC: 1.56 µg/mL (≈ 0.963 µM)
Enterococcus faecalis [17]
  MIC: 1.56 µg/mL (≈ 0.963 µM)
Enterococcus faecalis [18]
  MIC: 3.13 µg/mL (≈ 1.93 µM)
Staphylococcus aureus [19]
  MIC: 0.78 µg/mL (≈ 0.481 µM)
Staphylococcus aureus [20]
  MIC: 0.78 µg/mL (≈ 0.481 µM)
Enterococcus faecium [21]
  MIC: 1.56 µg/mL (≈ 0.963 µM)
